Test results as given in US20050112573A1, “Method of detecting toxic substance” (priority 2001, published 2005).
Read-outs that look alike come from different tables or passages of the source.

Tests used:
Assay type in all cases: cell-based, Saccharomyces cerevisiae W303
[1] = test system: promoter of yeast gene YLL057c; details: SC-YLL057C-pQBI cells; summary of Table 13
Text: (§1) The inventors of the present application understood that the induction of certain yeast genes by toxic substances is caused by the activation of the promoters of the genes by the toxic substances. Thus, the inventors prepared a vector that comprised a polynucleotide sequence comprising the promoter of the yeast gene, which sequence is operably linked to a polynucleotide encoding a marker protein; and transformed yeast cells with the vector. […] The working examples hereinafter illustrate the preparation of such vectors, transformation of yeast cells by use of said vectors, and the detection of toxic substances by use of the transformed cells.
(§2) Promoter assay is a method for determining variations of the level of intracellular genes without destroying cells on the basis of the level of expressed marker genes instead of the expressed mRNA. The gene selected to detect a chemical substance is expressed in the absence of chemical substances, and thus a marker protein also occurs in the absence of chemical substances. In the method according to the present invention, the behavior of yeast genes on the addition of test materials is determined on the basis of the level of expressed marker protein so that the presence or the absence, and the kind of toxic chemical substances are predicted. Thus, it is desired that the production of marker proteins is lower in the absence of chemical substances, and the production of marker proteins is higher in the presence of chemical substances.
(§3) Type YEp shuttle vector pYES2 (pYES2, Cat no: V825-20, Invirtogen Corporation, USA), which can be replicated both in E. coli. and yeast was used as vector (R. W. Old, S. B. Primrose Principles of Gene Manipulation 5th Ed., BAIFUKAN CO., LTD, pp138-165, pp.234-263, 2000). The portion of vector PQBI 63 (Cat no.54-0082, Wako Pure Chemical Industries, Ltd.) corresponding to a marker protein GFP was used as the polynucleotide encoding GFP (SEQ ID No: 6). First, the GFP polynucleotide was inserted into the multiple cloning sites of pYES2 to give a vector. Thereafter, the GALL promoter of pYES2 was replaced with the polynucleotide comprising the promoter sequence of the intended yeast gene YLL057c (SEQ ID No: 4) to give an intended plasmid vector. Suitable restriction enzymes were selected, and the insertion of the polynucleotide comprising GFP and the promoter sequence was conducted.
(§4) Next, the yeast Saccharomyces cerevisiae W303 was transformed with the resultant plasmid vector according to the following procedures: • 1) Incubating the yeast Saccharomyces cerevisiae W303 in 200 ml of SD medium under shaking until OD 660 reaches 0.5; • 2) Suspending the collected cells in 5 ml of TE-buffer; • 3) Adding 250 μL of 2.5M lithium acetate; • 4) Dispending each 300 μl, adding 10 μl of above plasmid vector thereto, then incubating the suspensions at 30° C. for 30 minutes; • 5) Adding 700 μl of 50% PEG4000, and incubating the mixture under shaking at 30° C. for 60 minutes; • 6) Giving heat shock (42° C., 5 minutes), and then immediately cooling the mixture; • 7) Washing the mixture twice with 1M sorbitol; and • 8) Seeding it on agar plates made of minimum essential medium.
(§5) The cells of SC-YLL057C-pQBI as prepared in Example 5 were contacted to one of the following compounds. The yeast cells SC-YLL057C-pQBI were incubated at 25° C. in SD medium (Yeast nitrogen base without amino acids (Difco 0919-15)+glucose+amino acids (adenine, histidine, tryptophan)). One of toxic chemical substances as shown below was added to the cells at logarithmic growth phase, and then the cells were further incubated for two hours.

[2] = test system: promoter of yeast gene YLR303w; details: SC-YCR303W-pQBI cells (so in the source); summary of Table 14
Text: as §1, §2
as §3, with “pQBI” for “PQBI”, “GAL1” for “GALL”, “YLR303w” for “YLL057c”, “5)” for “4)”
as §4
as §5, with “of SC-YCR303W-pQBI” for “of SC-YLL057C-pQBI”, “Example 6” for “Example 5”, “cells SC-YCR303W-pQBI” for “cells SC-YLL057C-pQBI”

[3] = test system: promoter of yeast gene YOR382w
Text: as §1, §2
as §3, with “pQBI” for “PQBI”, “GAL1” for “GALL”, “YOR382w” for “YLL057c”, “3)” for “4)”
as §4
as §5, with “of SC-YOR382W-pQBI” for “of SC-YLL057C-pQBI”, “Example 4” for “Example 5”, “cells SC-YOR382W-pQBI” for “cells SC-YLL057C-pQBI”

[4] = SC-YOR382W-pQBI cells, summary of Table 12

Row | Compound | expression of GFP [1] | expression of GFP [2] | expression of GFP [3, 4] | expression of GFP [3]
1 | O=C(O)COc1ccc(Cl)cc1Cl [2,4-dichlorophenoxyacetic acid] | induced the expression of GFP | induced the expression of GFP | induced the expression of GFP | –
2 | c1ccc2c(c1)cc1ccc3cccc4ccc2c1c34 [benzo(a)pyrene] | – | induced the expression of GFP | – | –
3 | CCCCCCCCCc1ccc(O)cc1 [p-nonylphenol] | – | – | induced the expression of GFP | –
4 | Oc1ccccc1 [phenol] | – | – | – | induced the expression of GFP
